Legend:
Type in all cases: cell-based, mouse
AMPK = AMPK activation assay (ELISA ratio phosphorylated α-AMPK:total α-AMPK in C2C12 cells); conditions: concentrations as low as 30 nanomolar, 4 hours of incubation
Experimental: C2C12 cells from the mouse muscle myoblastoma cell line (from Sigma-Aldrich) were seeded at a cell density of 10,000 cells per well in a 96-well plate in 200 μl of growth medium (high glucose DMEM, 10% foetal bovine serum […], penicillin and […]). The cells were allowed to grow until confluence and on the day of the assay they were incubated with the compound of interest in 100 μl of growth medium at 37° C. and 5% CO2 in an incubator for between 1 and 24 hours. All conditions were tested in quadruplicate. The compounds were administered dissolved in sterile anhydrous dimethyl sulphoxide at different concentrations. As a positive control for AMPK activation, an adenosine monophosphate (AMP) solution with a final concentration of […] was used. After the corresponding times, the medium was removed and the cells were carefully washed three times with PBS at room temperature and the Abcam Elisa kit was used to quantify the ratio of phosphorylated α-AMPK:total α-AMPK. The manufacturer's instructions were followed and the signal was quantified using a Licor Odissey® scanner.
The compounds selected as AMPK activators according to the criteria described above are used in glucose consumption tests and MTT cell viability tests.

C2C12 cells [1] = assay: Glucose consumption test (2-deoxyglucose uptake, luminometric) in C2C12 myotubes; conditions: one hour incubation
Experimental: C2C12 cells of the mouse muscle myoblastoma cell line (from Sigma-Aldrich) were seeded at a cell density of 10,000 cells per well in a white 96-well plate compatible with the use of a luminometer. Cells were grown for 5 days in 200 μl/well of growth medium (high glucose DMEM, 10% foetal bovine serum […], penicillin and […]) in an incubator at 37° C. and 5% CO2. The medium was changed every two days. The medium was then replaced with a differentiation medium (low glucose DMEM, 2% […], penicillin and […]), allowing the cells to differentiate into myotubes for three days. The medium was changed every day. One day prior to testing, cells were serum starved (low glucose DMEM, penicillin and […]). The medium was then replaced by a DMEM medium without glucose and the compound N9-(3-diethylphosphonyl)phenyl-adenine was incubated for one hour at different concentrations, replicating the conditions in quadruplicate. The positive control consisted of 100 nanomolar human insulin solution (from Sigma). A Promega glucose consumption kit was used following the manufacturer's instructions. […]
Total luminescence was measured on a Biotek MX luminometric plate reader. […]

C2C12 cells [2] = assay: MTT cell viability/proliferation assay in C2C12 myotubes
Experimental: MTT Cell Viability/Proliferation Assay
The MTT redox assay is based on the metabolic reduction of bromide from 3-(4,5-dimethylthiazol-2-yl)-2,5-diphenyltetrazole (MTT) that is produced by the mitochondrial enzyme succinate-dehydrogenase, which colours the formazan dye blue, allowing to determine the mitochondrial functionality of the treated cells.
C2C12 cells were seeded at a density of 10,000 cells per well in a white 96-well plate compatible with the use of a luminometer. Cells were grown for 5 days in 200 μl/well of growth medium (high glucose DMEM, 10% FBS, penicillin and […]), with the medium being replaced every two days. Subsequently, the medium was replaced by a differentiation medium (low glucose DMEM, 2% NHS, penicillin and […]) and the cells were allowed to differentiate in myotubes for three days, the medium being changed every day. In all processes, cells were incubated at 37° C. and 5% CO2 in a cell incubator. The compound N9-(3-diethylphosphonyl)phenyl-adenine was incubated for 24 and 48 hours in low glucose DMEM without serum. […] After incubation, 10 μl of the MTT reagent (Abcam) was added to each well and, after 30 min, 45 min and 60 min of incubation, the absorbance at 490 nm was measured in a photometer with a Biotek TX plate reader. The reading is an indirect measure of the NAD(P)H enzyme dependent on cellular oxidase reductases. […]

With N9-(3-diethylphosphonyl)phenyl-adenine the “AMPK activity as % of that obtained with the AMP positive control” value (AMPK) was “greater than 500%”, the “AMPK activity compared with the AMP positive control” value (AMPK) was “higher AMPK activity than the AMP positive control” and the “Luminosity as % of the control (glucose consumption)” value (C2C12 cells [1]; 30 nanomolar, C2C12 myotubes) was 125±9%. The “glucose consumption activity compared with insulin controls” value (C2C12 cells [1]; concentrations as low as 30 nanomolar, control 100 nanomolar human insulin) was “analogous to or greater than that of insulin controls”, the “Luminosity as % of the control (MTT)” value (C2C12 cells [2]; 30 nanomolar, 48 hours incubation) was 157±5% and the “MTT signal compared to controls” value (C2C12 cells [2]; nanomolar concentrations) was “significantly higher signal compared to controls”.
